Laboratory results taken from US11446351B2, “Composition for treating one or more estrogen related diseases” (LIFEARC, priority 2018, dated 2022).
Where a name gives a salt, the structure may show the parent alone. Where a SMILES comes first, the peptide text is derived from it. [ ]: non-standard residue; d: D form. dPhe(4-Cl) = N[C@H](Cc1ccc(Cl)cc1)C(=O)O; d2Nal = N[C@H](Cc1ccc2ccccc2c1)C(=O)O; d(hCit) = NC(=O)NCCCC[C@@H](N)C(=O)O; Lys(iPr) = CC(C)NCCCC[C@H](N)C(=O)O; d3Pal = N[C@H](Cc1cccnc1)C(=O)O

Tests used:
Assay type in all cases: in vivo, human
women = assay: Phase I study (Example 2): bone marker deoxypyridinoline (DPD) in urine; settings: 30 mg and 45 mg, days 1-64, FIG. 7
Protocol: In order to evaluate the effect of the treatment with Teverelix TFA on the bone mineral density, two biochemical bone mineral markers was measured in the subjects. Telopeptides type I collagen, cross-linked, […] (CTX) was measured in serum of the treated subjects, and deoxypyridinoline (DPD) was measured in the subject's urine.
Said bone markers were measured on the following days in the test period: 1 (pre-dose), 15, 29, 43, 57, 64
DPD is a dynamic biochemical marker of bone loss. An increase in DPD levels in an early morning urine specimen is a reliable indicator of increased bone loss. The CTX test measures for the presence and concentration of a crosslink peptide sequence of type I collagen, found, among other tissues, in bone. This specific peptide sequence relates to bone turnover because it is the portion that is cleaved by osteoclasts during bone resorption, and its serum levels are therefore proportional to osteoclastic activity at the time the blood sample is drawn.
The concentration of DPD and CTX test were carried out at MOS Pharma Services, Central Lab GmbH, Grossmoorbogen 25, 21079 Hamburg, Germany by means of highly sensitive and specific validated chemi-luminescent (CUA) and enzyme-linked immuno-sorbent (ELISA) methods. The results are shown in FIG. 7 and table 6 respectively.

[1] = Phase I trial (Example 1): pharmacokinetics, total systemic exposure of Teverelix
Protocol: (§1) The Teverelix TFA formulations were manufactured as followed. 0.8 ml or 0.6 ml 5% mannitol were added to the relevant dosage of 60 or 45 mg of the LHRH antagonist Teverelix® trifluoroacetate, respectively. The mixture was stirred using vortex during one minute providing two dosage formulations of Teverelix TFA in a flowing milky pearly microcrystalline aqueous suspensions. The suspensions are made of microcrystals of about 10 μm length. Corresponding placebo formulations, without Teverelix TFA was also prepared
(§2) A phase I clinical trial with formulation A and B (and placebo) was conducted in order to evaluate the pharmacokinetics, pharmacodynamics, safety and tolerability of Teverelix TFA.
(§3) The formulations were each injected subcutaneous (s.c.) as follows: • A single dosage of formulation A (60 mg Teverelix TFA) administered s.c. on day 3±1 of the menstrual cycle, to 8 healthy female subjects • A single dosage of formulation A placebo was administered s.c. to on day 3±1 of the menstrual cycle, to 4 healthy female subjects • Two dosages of formulation B (45 mg Teverelix TFA) administered s.c. to 8 healthy female subjects. The first dosage on day 3±1 of the menstrual cycle and a second dosage administered on day 10±1 of the menstrual cycle, and • two dosages of formulation B placebo was administered s.c. to 4 healthy female subjects. The first dosage on day 3±1 of the […] menstrual cycle and a second dosage administered on day 10±1 of the menstrual cycle.

[2] = Phase I study (Example 2): Teverelix TFA concentrations in serum
Protocol: Two formulations comprising either 45 mg or 30 mg Teverelix TFA and a placebo formulations, were prepared as described in example 1, i.e. the following formulations were prepared
The respective formulations were each injected subcutaneous (s.c.) to 24 subjects—12 per group i.e. 8 on active drug 4 on placebo per group. All subjects received a dose on either the active or placebo s.c. on day 3±1 of the menstrual cycle, i.e. • A single dosage of formulation B (45 mg Teverelix TFA) administered s.c. on day 3±1 of the menstrual cycle, • A single dosages of formulation C (30 mg Teverelix TFA) administered s.c. on day 3±1 of the menstrual cycle, and • A single dosage of formulation B placebo or formulation C placebo administered s.c. on day 3±1 of the menstrual cycle.
The concentration of Teverelix TFA, and Estradiol was measured over a period of 63 days. Additionally, the effect on Teverelix TFA on two bone markers was measured.
The mean Teverelix TFA concentration in the serum of the respective subjects was measured.

healthy female subjects = assay: Phase I trial (Example 1): estradiol concentration in serum
Protocol: as §1, §2, §3
The mean estradiol concentration in the respective subjects was measured. The results are shown in table 1 and 2, respectively and is depicted in FIG. 1 in relation to the placebo data.

[3] = 60 mg single s.c. (Treatment Group 1)
[4] = 2 × 45 mg s.c. (Treatment Group 2)

## CC(=O)N[C@H](Cc1ccc2ccccc2c1)C(=O)N[C@H](Cc1ccc(Cl)cc1)C(=O)N[C@H](Cc1cccnc1)C(=O)N[C@@H](CO)C(=O)N[C@@H](Cc1ccc(O)cc1)C(=O)N[C@H](CCCCNC(N)=O)C(=O)N[C@@H](CC(C)C)C(=O)N[C@@H](CCCCNC(C)C)C(=O)N1CCC[C@H]1C(=O)N[C@H](C)C(N)=O [Teverelix TFA, N-Ac-d-Nal^1,d-pCl-Phe^2,d-Pal^3,d-(Hci)^6,Lys(iPr)^8,d-Ala^10 trifluoroacetate] (Ac-[d2Nal][dPhe(4-Cl)][d3Pal]SY[d(hCit)]L[Lys(iPr)]P[dA]-NH2; C-terminus assumed)
women
  alteration in bone marker urine DPD during the study: no significant alteration
[1]; [3]
  AUC(0−cq), Geometric Mean: 1.592 µM·h
  AUC(0−t), Geometric Mean: 1.907 µM·h
  CmaxInit1, Geometric Mean: 10.9 nM
  CmaxLate, Geometric Mean: 2.63 nM
[1]; [4]
  AUC(0−cq), Geometric Mean: 2.323 µM·h
  AUC(0−t), Geometric Mean: 2.833 µM·h
  CmaxInit1, Geometric Mean: 6.03 nM
  CmaxInit2, Geometric Mean: 7.03 nM
  CmaxLate, Geometric Mean: 3.63 nM
[1]; s.c., healthy female subjects
  total systemic exposure, two injections of 45 mg one week apart compared with a single 60 mg injection: approximately 1.5 fold
[2]; 30 mg dose
  period with quantifiable levels in serum: 42 days
[2]; 30 mg s.c., 0 h
  Mean Teverelix TFA concentration in serum: 0.00 ng/L
[2]; 45 mg dose
  period with quantifiable levels in serum: 64 days
[2]; 45 mg s.c., 0 h
  Mean Teverelix TFA concentration in serum: 0.00 ng/L
[2]; 30 + 45 mg groups, 0 h
  Mean Teverelix TFA concentration in serum: 0.00 ng/L
[2]; 30 + 45 mg groups, 0.5 h
  Mean Teverelix TFA concentration in serum: 5.79 ng/L
Healthy female subjects; 2 × 45 mg one week apart
  time at which estradiol returned to near baseline and menses reoccurred in at least one subject: 1008 h p.f.a
Healthy female subjects; 2 × 45 mg, after first injection, 48 h p.f.a.
  estradiol mean (SD) concentration relative to baseline: −14.56 (9.95) ng/L
Healthy female subjects; 2 × 45 mg, after second injection, 312 h p.f.a.
  estradiol mean (SD) concentration relative to baseline: −14.20 (10.85) ng/L
Healthy female subjects; both doses (60 mg; 2 × 45 mg), FIG. 1
  estradiol concentrations when compared to placebo: significantly reduced
Healthy female subjects; single 60 mg
  time at which estradiol returned to near baseline and menses reoccurred in at least one subject: 840 h p.f.a
Healthy female subjects; single 60 mg, 264 h p.f.a
  estradiol mean (SD) concentration relative to baseline: −31.22 (23.11) ng/L
Healthy female subjects; single 60 mg, 456 h p.f.a
  estradiol mean (SD) concentration relative to baseline: −1.04 (90.98) ng/L
